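Briefly, cells in 96-well plates were exposed to five compound concentrations for 48 h, and endpoints were estimated by linear interpolation. TGI: total growth inhibition.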
Key:
Assay in all cases: NCI tumour cell line growth inhibition, 48 h
[1] = test system: OVCAR-4 ovarian
[2] = test system: SW-620 colon
[3] = test system: OVCAR-3 ovarian
[4] = test system: HOP-62 NSCLC
[5] = test system: MDA-MB-435
[6] = test system: NCI-H23 lung
[7] = test system: KM12 colon
[8] = test system: HS 578T breast
[9] = test system: SK-MEL-5 melanoma
[10] = test system: UACC-62 melanoma

Row | Structure (SMILES) | TGI [1] | TGI [2] | TGI [3] | TGI [4] | TGI [5] | TGI [6] | TGI [7] | TGI [8] | TGI [9] | TGI [10]
1 | Cc1[nH]c2nccn2c(=O)c1CCO | > 10 µM | > 10 µM | > 10 µM | > 10 µM | > 10 µM | > 10 µM | > 10 µM | > 10 µM | > 10 µM | > 10 µM
2 | O=S(=O)(/N=C(\NO)Nc1ccc(Cl)cc1)c1cc2ccccc2s1 | 37.9 µM | 82 µM | 32.4 µM | 34.8 µM | 36.9 µM | 30.5 µM | 57.2 µM | 37.5 µM | 30.1 µM | 29.3 µM
3 | N#CC1=C(N)N(/N=C/c2ccco2)C(c2ccco2)C1(C#N)C#N (stereo not given) | 32.5 µM | 24.5 µM | 39 µM | 51.1 µM | 41.4 µM | 35.8 µM | 28.7 µM | 97.2 µM | 29.3 µM | 42.4 µM
4 | CC[C@]12C=CCN3CC[C@@]4(c5cc(Br)c(OC)cc5N(C)[C@H]4[C@@](O)(C(=O)NC(Cc4c[nH]c5ccccc45)C(=O)OC)[C@@H]1O)[C@@H]32 (stereo not given in full) | > 100 µM | > 100 µM | > 100 µM | > 100 µM | > 100 µM | > 100 µM | > 100 µM | > 100 µM | 75.8 µM | > 100 µM
5 | CN(C)CCCn1c(Cn2nc3ccccc3n2)nc2cc(C(F)(F)F)ccc21 | > 100 µM | > 100 µM | > 100 µM | > 100 µM | 33 µM | > 100 µM | 54.1 µM | > 100 µM | 30.2 µM | 40.8 µM
6 | COC(=O)C(=O)C(C(=O)OC)C(=O)C(=O)Nc1c(Cl)cc([N+](=O)[O-])cc1Cl (stereo not given) | > 100 µM | > 100 µM | > 100 µM | > 100 µM | > 100 µM | > 100 µM | > 100 µM | > 100 µM | > 100 µM | > 100 µM
7 | COc1ccc2[nH]c3c(c2c1)CC(=O)N1CCC[C@H](C1)CC31OCCCO1 | > 100 µM | > 100 µM | > 100 µM | > 100 µM | > 100 µM | > 100 µM | > 100 µM | > 100 µM | > 100 µM | > 100 µM
8 | CCOC(=O)c1nc2cc(Cl)ccc2[nH]c1=O | > 100 µM | > 100 µM | > 100 µM | > 100 µM | > 100 µM | > 100 µM | > 100 µM | > 100 µM | > 100 µM | > 100 µM
9 | Cn1cc2c3ccccc3nc-2c2ccccc21 | 5.25 µM | 3.89 µM | 6.88 µM | 4.16 µM | 6.33 µM | 3.15 µM | 6.78 µM | 5.3 µM | 3.64 µM | 3.15 µM
10 | COc1ccc(C2=NNC(=O)c3ccccc3N2c2nc(-c3cccs3)nc3cc(OC)c(OC)cc23)cc1 | 4.49 µM | > 100 µM | 9.24 µM | 17 µM | 13.6 µM | > 100 µM | > 100 µM | 27.5 µM | 17.3 µM | 5.79 µM
11 | CN(C)S(=O)(=O)c1nc(Cl)c2[nH]cnc2n1 | > 100 µM | > 100 µM | > 100 µM | > 100 µM | > 100 µM | > 100 µM | > 100 µM | > 100 µM | > 100 µM | > 100 µM
12 | Fc1ccc(C(OCCN2CCC3CCC(C2)N3C/C=C/c2cccs2)c2ccc(F)cc2)cc1 (stereo not given) | 22.5 µM | 19.1 µM | 25.3 µM | 30.2 µM | 20.5 µM | 20.9 µM | 19.7 µM | 28.4 µM | 12.1 µM | 23.7 µM
13 | C(=N\NC1=NCCN1)/c1ccc2ccccc2c1 | 54.3 µM | 32.6 µM | 32.9 µM | 31 µM | 31.3 µM | 51.1 µM | 28 µM | 43.3 µM | 25.9 µM | 29 µM
14 | O=C(O)c1nn(-c2ccccc2)nc1-c1nn(-c2ccccc2)nc1C(=O)O | > 100 µM | > 100 µM | > 100 µM | > 100 µM | > 100 µM | > 100 µM | > 100 µM | > 100 µM | > 100 µM | > 100 µM
15 | O=c1[nH]c(=O)n(C2CC(O)C(CO)O2)cc1Br (stereo not given) | > 100 µM | > 100 µM | > 100 µM | > 100 µM | > 100 µM | > 100 µM | > 100 µM | > 100 µM | > 100 µM | > 100 µM
16 | O=c1[nH]cnc2c1cnn2Cc1cnnn1COCCO | > 100 µM | > 100 µM | > 100 µM | > 100 µM | 90.5 µM | > 100 µM | > 100 µM | > 100 µM | > 100 µM | > 100 µM
17 | Cc1nc2ccc(NC3OCC(O)C(O)C3O)cc2c(=O)n1-c1ccccc1 (stereo not given) | > 100 µM | > 100 µM | > 100 µM | > 100 µM | > 100 µM | > 100 µM | > 100 µM | > 100 µM | > 100 µM | > 100 µM

From PubChem BioAssay (NCI)
